Results published in paper PMC5218480 (PLoS ONE, 2017).

System: MV-4-11 cells
Assay: Gene expression microarray analysis (Affymetrix PrimeView) and GSEA
Format: cell-based, human
Parameters: RFU PODN (11730768_x_at) / Fold change /veh PODN (11730768_x_at) / RFU LINC00158 (11744669_a_at) / Fold change /veh LINC00158 (11744669_a_at) / RFU DUSP10 (11751237_a_at) / Fold change /veh DUSP10 (11751237_a_at) / RFU ID3 (11757404_x_at) / Fold change /veh ID3 (11757404_x_at) / RFU PLEKHG5 (11737974_s_at) / Fold change /veh PLEKHG5 (11737974_s_at) / RFU LRRC4B (11730491_at) / Fold change /veh LRRC4B (11730491_at) / RFU GIMAP4 (11747438_a_at) / Fold change /veh GIMAP4 (11747438_a_at) / RFU KRT8 (11758183_x_at) / Fold change /veh KRT8 (11758183_x_at) / RFU CNN1 (11734310_a_at) / Fold change /veh CNN1 (11734310_a_at) / RFU VPS37D (11726825_at) / Fold change /veh VPS37D (11726825_at) / RFU C10orf10 (11716522_x_at) / Fold change /veh C10orf10 (11716522_x_at) / RFU KIR2DL2 /// KIR2DL4 /// KIR2DL5A /// KIR2DL5B /// KIR2DS1 /// KIR2DS2 /// KIR2DS3 /// KIR2DS4 /// KIR3DL3 /// KIR3DL3 /// KIR3DS1 (11738374_at) / Fold change /veh KIR2DL2 /// KIR2DL4 /// KIR2DL5A /// KIR2DL5B /// KIR2DS1 /// KIR2DS2 /// KIR2DS3 /// KIR2DS4 /// KIR3DL3 /// KIR3DL3 /// KIR3DS1 (11738374_at) / RFU C1QL1 (11718748_at) / Fold change /veh C1QL1 (11718748_at) / RFU TMPRSS4 (11747572_a_at) / Fold change /veh TMPRSS4 (11747572_a_at) / RFU HAMP (11756126_x_at) / Fold change /veh HAMP (11756126_x_at) / RFU RNFT2 (11725882_a_at) / Fold change /veh RNFT2 (11725882_a_at) / RFU NR4A2 (11747474_a_at) / Fold change /veh NR4A2 (11747474_a_at) / RFU ABCC12 (11746883_a_at) / Fold change /veh ABCC12 (11746883_a_at) / RFU TMEM136 (11760407_x_at) / Fold change /veh TMEM136 (11760407_x_at) / RFU CLDN22 /// WWC2 (11732394_at) / Fold change /veh CLDN22 /// WWC2 (11732394_at) / RFU HLA-DPB1 (11760878_x_at) / Fold change /veh HLA-DPB1 (11760878_x_at) / RFU SPINT1 (11716480_a_at) / Fold change /veh SPINT1 (11716480_a_at) / RFU GAP43 (11754022_s_at) / Fold change /veh GAP43 (11754022_s_at) / RFU A4GNT (11735810_at) / Fold change /veh A4GNT (11735810_at) / RFU PRB3 (11715151_x_at) / Fold change /veh PRB3 (11715151_x_at) / RFU TUBB4B (11761932_at) / Fold change /veh TUBB4B (11761932_at) / RFU CAPN14 (11732068_a_at) / Fold change /veh CAPN14 (11732068_a_at) / RFU TMCC2 (11721928_a_at) / Fold change /veh TMCC2 (11721928_a_at) / RFU IRGQ (11745062_a_at) / Fold change /veh IRGQ (11745062_a_at) / RFU FAM174B (11720279_a_at) / Fold change /veh FAM174B (11720279_a_at) / RFU TMPRSS4 (11748680_a_at) / Fold change /veh TMPRSS4 (11748680_a_at) / RFU FAM212B (11763350_a_at) / Fold change /veh FAM212B (11763350_a_at) / RFU PLEKHG5 (11743358_a_at) / Fold change /veh PLEKHG5 (11743358_a_at) / RFU ZSCAN30 (11745921_a_at) / Fold change /veh ZSCAN30 (11745921_a_at) / RFU CMKLR1 (11741424_a_at) / Fold change /veh CMKLR1 (11741424_a_at) / RFU LOC101060620 /// MAPK8IP1 (11723275_at) / Fold change /veh LOC101060620 /// MAPK8IP1 (11723275_at) / RFU SPTSSB (11747773_x_at) / Fold change /veh SPTSSB (11747773_x_at) / RFU PRSS12 (11739890_at) / Fold change /veh PRSS12 (11739890_at) / RFU BIN1 (11741810_x_at) / Fold change /veh BIN1 (11741810_x_at) / RFU WNT11 (11732464_a_at) / Fold change /veh WNT11 (11732464_a_at) / RFU C10orf10 (11716521_a_at) / Fold change /veh C10orf10 (11716521_a_at) / RFU C5orf56 (11738089_at) / Fold change /veh C5orf56 (11738089_at) / RFU CYB561 (11721691_x_at) / Fold change /veh CYB561 (11721691_x_at) / RFU ANKRD19P (11752326_a_at) / Fold change /veh ANKRD19P (11752326_a_at) / RFU OR2T12 /// OR2T33 /// OR2T8 (11738714_s_at) / Fold change /veh OR2T12 /// OR2T33 /// OR2T8 (11738714_s_at) / RFU VCAN (11748164_a_at) / Fold change /veh VCAN (11748164_a_at) / RFU JSRP1 (11732532_at) / Fold change /veh JSRP1 (11732532_at) / RFU KRTAP10-11 (11738290_x_at) / Fold change /veh KRTAP10-11 (11738290_x_at) / RFU MYO3A (11730013_a_at) / Fold change /veh MYO3A (11730013_a_at) / RFU EBF3 (11725865_a_at) / Fold change /veh EBF3 (11725865_a_at) / RFU CAMK2N1 (11719241_x_at) / Fold change /veh CAMK2N1 (11719241_x_at) / RFU C5orf56 (11738088_a_at) / Fold change /veh C5orf56 (11738088_a_at) / RFU OLFML3 (11715873_a_at) / Fold change /veh OLFML3 (11715873_a_at) / RFU LOC100653217 /// NTM (11731650_a_at) / Fold change /veh LOC100653217 /// NTM (11731650_a_at) / RFU MAPK11 (11762145_a_at) / Fold change /veh MAPK11 (11762145_a_at) / RFU FIZ1 (11724087_x_at) / Fold change /veh FIZ1 (11724087_x_at) / RFU OASL (11726364_x_at) / Fold change /veh OASL (11726364_x_at) / RFU SOX15 (11748057_x_at) / Fold change /veh SOX15 (11748057_x_at) / RFU CD79A (11719716_a_at) / Fold change /veh CD79A (11719716_a_at) / RFU HIST1H1D (11736915_at) / Fold change /veh HIST1H1D (11736915_at) / RFU CASKIN2 (11723855_a_at) / Fold change /veh CASKIN2 (11723855_a_at) / RFU LOC730098 (11760151_x_at) / Fold change /veh LOC730098 (11760151_x_at) / RFU OR4N2 (11742367_at) / Fold change /veh OR4N2 (11742367_at) / RFU PRRT2 (11749266_a_at) / Fold change /veh PRRT2 (11749266_a_at) / RFU SNX32 (11753110_a_at) / Fold change /veh SNX32 (11753110_a_at) / RFU CDHR5 (11726645_a_at) / Fold change /veh CDHR5 (11726645_a_at) / RFU RCAN1 (11760418_a_at) / Fold change /veh RCAN1 (11760418_a_at) / RFU FAM167A (11723789_a_at) / Fold change /veh FAM167A (11723789_a_at) / RFU FAM26E (11764081_at) / Fold change /veh FAM26E (11764081_at) / RFU ISYNA1 (11749810_s_at) / Fold change /veh ISYNA1 (11749810_s_at) / RFU ACY1 (11761880_at) / Fold change /veh ACY1 (11761880_at) / RFU 11764098_at / Fold change /veh 11764098_at / RFU SAMD14 (11745864_x_at) / Fold change /veh SAMD14 (11745864_x_at) / RFU NPB (11741838_a_at) / Fold change /veh NPB (11741838_a_at) / RFU TMPRSS6 (11731388_a_at) / Fold change /veh TMPRSS6 (11731388_a_at) / RFU KRTAP10-2 (11738614_at) / Fold change /veh KRTAP10-2 (11738614_at) / RFU ARHGAP8 /// PRR5-ARHGAP8 (11727945_x_at) / Fold change /veh ARHGAP8 /// PRR5-ARHGAP8 (11727945_x_at) / RFU KRTAP5-7 /// NADSYN1 (11734609_at) / Fold change /veh KRTAP5-7 /// NADSYN1 (11734609_at) / RFU RASL12 (11751679_a_at) / Fold change /veh RASL12 (11751679_a_at) / RFU CDKN2B (11736163_a_at) / Fold change /veh CDKN2B (11736163_a_at) / RFU PRF1 (11729649_at) / Fold change /veh PRF1 (11729649_at) / RFU, ZNF638 /// ZNF638-IT1 / Fold change vs veh, ZNF638 /// ZNF638-IT1 / RFU, PANK3 / Fold change vs veh, PANK3 / RFU, SH3YL1 / Fold change vs veh, SH3YL1 / RFU, ZEB2 / Fold change vs veh, ZEB2 / RFU, NRIP1 / Fold change vs veh, NRIP1 / RFU, PTTG1IP / Fold change vs veh, PTTG1IP / RFU, CAPN2 / Fold change vs veh, CAPN2 / RFU, MED14 / Fold change vs veh, MED14 / RFU, SNORA58 / Fold change vs veh, SNORA58 / RFU, C1orf63 / Fold change vs veh, C1orf63 / RFU, LRRFIP1 / Fold change vs veh, LRRFIP1 / RFU, NDUFAF7 / Fold change vs veh, NDUFAF7 / RFU, SLC12A2 / Fold change vs veh, SLC12A2 / RFU, IBTK / Fold change vs veh, IBTK / RFU, ESF1 / Fold change vs veh, ESF1 / Fold change vs veh, TMEM50B / RFU, TAOK1 / Fold change vs veh, TAOK1 / RFU, ACBD3 / Fold change vs veh, ACBD3 / RFU, TMA16 / Fold change vs veh, TMA16 / RFU, RWDD3 / Fold change vs veh, RWDD3 / RFU, BCAT1 / Fold change vs veh, BCAT1 / RFU, EDEM3 / Fold change vs veh, EDEM3 / RFU, TMEM33 / Fold change vs veh, TMEM33 / RFU, WDR75 / Fold change vs veh, WDR75 / RFU, AHCTF1 / Fold change vs veh, AHCTF1 / RFU, TFRC / Fold change vs veh, TFRC / RFU, ZDHHC17 / Fold change vs veh, ZDHHC17 / RFU, NOM1 / Fold change vs veh, NOM1 / RFU, ARL8B / Fold change vs veh, ARL8B / RFU, ZBTB11 / Fold change vs veh, ZBTB11 / RFU, TAMM41 / Fold change vs veh, TAMM41 / RFU, KIAA1704 /// LOC100996395 / Fold change vs veh, KIAA1704 /// LOC100996395 / RFU, ING1 / Fold change vs veh, ING1 / RFU, TRMT61B / Fold change vs veh, TRMT61B / RFU, FUBP3 / Fold change vs veh, FUBP3 / RFU, TP53 / Fold change vs veh, TP53 / RFU, TNKS2 / Fold change vs veh, TNKS2 / RFU, ZFP14 / Fold change vs veh, ZFP14 / RFU, ACTR2 / Fold change vs veh, ACTR2 / RFU, PPP3R1 / Fold change vs veh, PPP3R1 / RFU, PIK3R1 / Fold change vs veh, PIK3R1 / RFU, HNRNPA1 / Fold change vs veh, HNRNPA1 / RFU, RNF170 / Fold change vs veh, RNF170 / RFU, ZNF28 / Fold change vs veh, ZNF28 / RFU, RNGTT / Fold change vs veh, RNGTT / RFU, OGT / Fold change vs veh, OGT / RFU, BRD1 / Fold change vs veh, BRD1 / RFU, MARS / Fold change vs veh, MARS / RFU, ZNF655 / Fold change vs veh, ZNF655 / RFU, FAHD1 / Fold change vs veh, FAHD1 / RFU, BDP1 / Fold change vs veh, BDP1 / RFU, LRRCC1 / Fold change vs veh, LRRCC1 / RFU, ARID1A / Fold change vs veh, ARID1A / RFU, ZNF146 / Fold change vs veh, ZNF146 / RFU, ZNF330 / Fold change vs veh, ZNF330 / RFU, GPN3 / Fold change vs veh, GPN3 / RFU, C9orf123 / Fold change vs veh, C9orf123 / RFU, N4BP2L2 / Fold change vs veh, N4BP2L2 / RFU, ARFIP1 / Fold change vs veh, ARFIP1 / RFU, FAM179B / Fold change vs veh, FAM179B / RFU, BCL10 / Fold change vs veh, BCL10 / RFU, UHRF1BP1L / Fold change vs veh, UHRF1BP1L / RFU, BET1 / Fold change vs veh, BET1 / RFU, CNOT2 / Fold change vs veh, CNOT2 / RFU, ZNF268 / Fold change vs veh, ZNF268 / Fold change vs veh, ZNF507 / RFU, DGCR2 / Fold change vs veh, DGCR2 / RFU, WDSUB1 / Fold change vs veh, WDSUB1 / Fold change vs veh, HSP90B1 /// MIR3652 / RFU, ADSS / Fold change vs veh, ADSS / RFU, GK / Fold change vs veh, GK / RFU, ZNF148 / Fold change vs veh, ZNF148 / RFU, TAF9 / Fold change vs veh, TAF9 / RFU, SLC1A5 / Fold change vs veh, SLC1A5 / RFU, SLMO2 / Fold change vs veh, SLMO2 / RFU, ABCC4 / Fold change vs veh, ABCC4 / RFU, LOC101060439 /// RAP1B / Fold change vs veh, LOC101060439 /// RAP1B / RFU, RFX7 / Fold change vs veh, RFX7 / RFU, GTPBP10 / Fold change vs veh, GTPBP10 / RFU, CNEP1R1 / Fold change vs veh, CNEP1R1 / RFU, BIVM-ERCC5 /// ERCC5 / Fold change vs veh, BIVM-ERCC5 /// ERCC5 / RFU, ILF3 / Fold change vs veh, ILF3 / RFU 11762660_at / Fold change /veh 11762660_at / RFU VCAN (11757783_s_at) / Fold change /veh VCAN (11757783_s_at) / RFU DDX43 (11728927_at) / Fold change /veh DDX43 (11728927_at) / RFU KRT8 (11758188_x_at) / Fold change /veh KRT8 (11758188_x_at) / RFU NKD1 (11759106_at) / Fold change /veh NKD1 (11759106_at) / RFU SRD5A1 (11742802_a_at) / Fold change /veh SRD5A1 (11742802_a_at) / RFU TPSAB1 /// TPSB2 (11721975_s_at) / Fold change /veh TPSAB1 /// TPSB2 (11721975_s_at) / RFU GSTM3 (11746129_a_at) / Fold change /veh GSTM3 (11746129_a_at) / RFU IL23R (11737362_x_at) / Fold change /veh IL23R (11737362_x_at) / RFU TMEM51 (11727254_a_at) / Fold change /veh TMEM51 (11727254_a_at) / RFU PIWIL2 (11732686_x_at) / Fold change /veh PIWIL2 (11732686_x_at) / RFU ORM1 (11744905_x_at) / Fold change /veh ORM1 (11744905_x_at) / RFU CCDC152 (11743942_at) / Fold change /veh CCDC152 (11743942_at) / RFU ECM1 (11717891_a_at) / Fold change /veh ECM1 (11717891_a_at) / RFU IL23R (11748794_a_at) / Fold change /veh IL23R (11748794_a_at) / RFU TNFAIP8L3 (11732012_x_at) / Fold change /veh TNFAIP8L3 (11732012_x_at) / RFU MBOAT4 (11741988_at) / Fold change /veh MBOAT4 (11741988_at) / RFU 11764193_at / Fold change /veh 11764193_at / RFU TMEM53 (11763286_at) / Fold change /veh TMEM53 (11763286_at) / RFU MAGEB2 (11727129_at) / Fold change /veh MAGEB2 (11727129_at) / RFU TMEM200A (11744735_a_at) / Fold change /veh TMEM200A (11744735_a_at) / RFU CCDC152 (11751479_a_at) / Fold change /veh CCDC152 (11751479_a_at) / RFU FAM211A (11726209_a_at) / Fold change /veh FAM211A (11726209_a_at) / RFU RGS16 (11746705_a_at) / Fold change /veh RGS16 (11746705_a_at) / RFU VCAN (11755009_s_at) / Fold change /veh VCAN (11755009_s_at) / RFU RHOB (11743442_s_at) / Fold change /veh RHOB (11743442_s_at) / RFU RGS16 (11720943_a_at) / Fold change /veh RGS16 (11720943_a_at) / RFU RGS16 (11720944_at) / Fold change /veh RGS16 (11720944_at) / RFU, VPS4B / Fold change vs veh, VPS4B / RFU, CREB1 / Fold change vs veh, CREB1 / RFU, DNAJC13 / Fold change vs veh, DNAJC13 / RFU, GNAQ / Fold change vs veh, GNAQ / RFU, CDK5R1 / Fold change vs veh, CDK5R1 / RFU, ZRANB3 / Fold change vs veh, ZRANB3 / RFU, CUL4A / Fold change vs veh, CUL4A / RFU, CCNY / Fold change vs veh, CCNY / RFU, UFL1 / Fold change vs veh, UFL1 / RFU, COG3 / Fold change vs veh, COG3 / RFU, DIAPH2 / Fold change vs veh, DIAPH2 / RFU, SKA2 / Fold change vs veh, SKA2 / RFU, AFF3 / Fold change vs veh, AFF3 / RFU, LMF1 / Fold change vs veh, LMF1 / RFU, IPO11 / Fold change vs veh, IPO11 / RFU, DFFB / Fold change vs veh, DFFB / RFU, FOXP1 / Fold change vs veh, FOXP1 / RFU, CARD8 / Fold change vs veh, CARD8 / RFU, STRN3 / Fold change vs veh, STRN3 / RFU, ADK / Fold change vs veh, ADK / RFU, RASSF2 / Fold change vs veh, RASSF2 / RFU, WIPF1 / Fold change vs veh, WIPF1 / RFU, LARP1B / Fold change vs veh, LARP1B / RFU, RASA1 / Fold change vs veh, RASA1 / RFU, RB1 / Fold change vs veh, RB1 / RFU, PPFIA1 / Fold change vs veh, PPFIA1 / RFU, MAT2A / Fold change vs veh, MAT2A / RFU, CCT5 / Fold change vs veh, CCT5 / RFU, WDR92 / Fold change vs veh, WDR92 / RFU, CUX1 / Fold change vs veh, CUX1 / RFU, TTC7A / Fold change vs veh, TTC7A / RFU, TMEM135 / Fold change vs veh, TMEM135 / RFU, DEPTOR / Fold change vs veh, DEPTOR / RFU, CPM / Fold change vs veh, CPM / RFU, DNAJB6 / Fold change vs veh, DNAJB6 / RFU, CACNA2D3 / Fold change vs veh, CACNA2D3 / RFU, DTX4 / Fold change vs veh, DTX4 / RFU, TFCP2 / Fold change vs veh, TFCP2 / RFU, GMCL1 /// GMCL1P1 / Fold change vs veh, GMCL1 /// GMCL1P1 / RFU, AEBP2 / Fold change vs veh, AEBP2 / RFU, SNHG1 /// SNORD22 /// SNORD25 /// SNORD26 /// SNORD27 /// SNORD28 /// SNORD29 /// SNORD31 / Fold change vs veh, SNHG1 /// SNORD22 /// SNORD25 /// SNORD26 /// SNORD27 /// SNORD28 /// SNORD29 /// SNORD31 / Fold change (Aza/veh), C12orf56 (ProbeSet 11735607_a_at) / Fold change (ACY-1035/veh), C12orf56 (ProbeSet 11735607_a_at) / Fold change (Aza/veh), FGFR1OP (ProbeSet 11751329_s_at) / Fold change (ACY-1035/veh), FGFR1OP (ProbeSet 11751329_s_at) / Fold change (Aza/veh), VPS36 (ProbeSet 11739960_a_at) / Fold change (ACY-1035/veh), VPS36 (ProbeSet 11739960_a_at) / RFU SYPL1 (11715823_x_at) / Fold change /veh SYPL1 (11715823_x_at) / RFU IGFBP7 (11715501_s_at) / Fold change /veh IGFBP7 (11715501_s_at) / RFU REEP3 (11722064_at) / Fold change /veh REEP3 (11722064_at) / RFU IGLL1 (11728026_x_at) / Fold change /veh IGLL1 (11728026_x_at): dose or concentration left out as unconfirmed
Settings: MV-4-11 cells, 48 hours

Nc1ncn([C@@H]2O[C@H](CO)[C@@H](O)[C@H]2O)c(=O)n1 [azacitidine] was tested, and the “Fold change /veh RASL12 (11751679_a_at)” value was 0.96.
